The values below come from PubChem BioAssay (NCI).

Some test systems named below: ACHN renal; HOP-62 NSCLC; IGROV1 ovarian; MCF7 breast; NCI-H23 lung; OVCAR-8 ovarian; SK-MEL-2 melanoma; SNB-75 CNS; T-47D breast; UACC-62 melanoma.
Common to all, as to test: inhibition of tumour cell growth, NCI panel, 48 h

The structures appear in SMILES notation. “And” between values parts separate entries of the source, which are not always exact repeats. Equal values may be shown once.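 Assay format: 96-well plates, 48-hour exposure. GI50 = concentration required for 50% inhibition of growth. TGI denotes the concentration required for complete inhibition of growth.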

Consider `O=C(/C=C/c1cccnc1)NCCCCC1CCN(C(=O)c2ccccc2)CC1`, for which the GI50 in the experiment on ACHN renal is > 100 µM; in the experiment with HOP-62 NSCLC it was > 100 µM; with IGROV1 ovarian it was > 47.3 µM; with NCI-H23 lung, > 100 µM; with OVCAR-8 ovarian it was < 0.01 µM; in the experiment with SK-MEL-2 melanoma, > 100 µM. Also, the GI50 is > 73.6 µM in the experiment with SNB-75 CNS; 1.93 µM in the experiment on T-47D breast; 70.3 µM and > 58 µM in the experiment on UACC-62 melanoma. The TGI in the experiment with ACHN renal, with HOP-62 NSCLC, in the experiment with IGROV1 ovarian, with MCF7 breast, in the experiment with NCI-H23 lung and with OVCAR-8 ovarian was > 100 µM throughout. Moreover, the TGI in the experiment on SK-MEL-2 melanoma is > 100 µM; in the experiment on SNB-75 CNS, > 100 µM; in the experiment with T-47D breast, > 90.3 µM; in the experiment on UACC-62 melanoma, > 100 µM.
For `COc1ccc(/C=C/C(=O)c2cc3c(N)c(C(=O)Nc4ccccc4Cl)sc3nc2C)cc1`, the GI50 is 1.74 µM in the experiment with ACHN renal; 1.62 µM in the experiment with HOP-62 NSCLC; 2.72 µM in the experiment on IGROV1 ovarian; 0.25 µM in the experiment with MCF7 breast; 4.58 µM with NCI-H23 lung; 2.04 µM in the experiment with OVCAR-8 ovarian. Moreover, the GI50 was 1.31 µM with SK-MEL-2 melanoma, 1.12 µM in the experiment with SNB-75 CNS, 2.95 µM with T-47D breast and 0.391 µM in the experiment on UACC-62 melanoma. In addition, the TGI in the experiment with ACHN renal was 10.8 µM; in the experiment with HOP-62 NSCLC, 8.02 µM; in the experiment on IGROV1 ovarian, > 50 µM; with MCF7 breast it was 22 µM; in the experiment on NCI-H23 lung it was > 50 µM; in the experiment on OVCAR-8 ovarian it was 11 µM. Moreover, the TGI is 16.7 µM in the experiment on SK-MEL-2 melanoma, 4.32 µM in the experiment with SNB-75 CNS, > 50 µM with T-47D breast and 8.93 µM with UACC-62 melanoma.
Consider `Nc1ccc2c(SCCSc3c4ccccc4nc4cc(N)ccc34)c3ccccc3nc2c1`, for which the TGI with ACHN renal, in the experiment with HOP-62 NSCLC, with IGROV1 ovarian, in the experiment with MCF7 breast, in the experiment with NCI-H23 lung and in the experiment on OVCAR-8 ovarian was > 100 µM each time. Besides, the TGI with SK-MEL-2 melanoma, in the experiment with SNB-75 CNS, with T-47D breast and with UACC-62 melanoma was > 100 µM in each case.
Turning to `OCc1cn(Cc2cccc(Cl)c2)c2ccccc12`, the GI50 in the experiment on ACHN renal was 5.63 µM; in the experiment with HOP-62 NSCLC, 9.74 µM; in the experiment on IGROV1 ovarian it was < 0.0271 µM; in the experiment with MCF7 breast it was 0.0488 µM; in the experiment with NCI-H23 lung, 13.3 µM; in the experiment on OVCAR-8 ovarian, 10.9 µM. Also, the GI50 in the experiment with SK-MEL-2 melanoma is 3.16 µM; in the experiment on SNB-75 CNS, 7.7 µM; with T-47D breast, < 0.0208 µM; with UACC-62 melanoma, < 0.0199 µM. Moreover, the TGI with ACHN renal is 69.2 µM; in the experiment on HOP-62 NSCLC, 47.3 µM; in the experiment with IGROV1 ovarian, 0.507 µM; with MCF7 breast it was 27.8 µM; in the experiment on NCI-H23 lung, 43.5 µM; in the experiment on OVCAR-8 ovarian it was 66.9 µM. Besides, the TGI in the experiment on SK-MEL-2 melanoma was 14.8 µM; in the experiment with SNB-75 CNS it was 29 µM; in the experiment with T-47D breast, 5.15 µM; in the experiment on UACC-62 melanoma it was 1.5 µM.
With `CCCC1c2c(ccc3ccccc23)Oc2ccc3ccccc3c21`, the TGI is > 100 µM with ACHN renal; > 100 µM with HOP-62 NSCLC; > 100 µM with IGROV1 ovarian; 35.6 µM with MCF7 breast; > 100 µM in the experiment with NCI-H23 lung; > 100 µM in the experiment with OVCAR-8 ovarian. Moreover, the TGI is 54.3 µM with SK-MEL-2 melanoma, > 100 µM in the experiment with SNB-75 CNS, > 100 µM in the experiment with T-47D breast and > 100 µM in the experiment on UACC-62 melanoma.
Consider `C[C@@H]1C=C(CCCCCCCCCCC[C@H](O)[C@@H]2CCC(=O)O2)C(=O)O1`, for which the GI50 was 17.9 µM in the experiment on ACHN renal; 40.2 µM in the experiment with HOP-62 NSCLC; 13.7 µM in the experiment with IGROV1 ovarian; 39.2 µM in the experiment on MCF7 breast; 24.2 µM with NCI-H23 lung; 23.4 µM with OVCAR-8 ovarian. The GI50 was 40.8 µM in the experiment on SK-MEL-2 melanoma, > 100 µM in the experiment on SNB-75 CNS, 32.7 µM with T-47D breast and 21.2 µM in the experiment with UACC-62 melanoma. The TGI in the experiment with ACHN renal is 49.3 µM; in the experiment on HOP-62 NSCLC it was > 100 µM; in the experiment on IGROV1 ovarian, 67.9 µM; in the experiment with MCF7 breast it was > 100 µM; with NCI-H23 lung it was 99.1 µM; in the experiment on OVCAR-8 ovarian, 69 µM. Also, the TGI with SK-MEL-2 melanoma was > 100 µM; in the experiment with SNB-75 CNS, > 100 µM; in the experiment on T-47D breast it was 65.2 µM; with UACC-62 melanoma, 85.7 µM.
With `C/C(=N/S(=O)(=O)c1ccc(Cl)c(Cl)c1)OCC(C)(C)C`, the TGI in the experiment on ACHN renal, in the experiment with HOP-62 NSCLC, with IGROV1 ovarian, with MCF7 breast, with NCI-H23 lung and with OVCAR-8 ovarian was > 100 µM each time. Besides, the TGI in the experiment on SK-MEL-2 melanoma, in the experiment on SNB-75 CNS, with T-47D breast and in the experiment on UACC-62 melanoma was > 100 µM throughout.
Take `C(=N\Nc1ccccn1)/c1ccccn1`: the GI50 in the experiment on ACHN renal was 0.294 µM; in the experiment with HOP-62 NSCLC, 0.38 µM; in the experiment on IGROV1 ovarian it was 0.355 µM; with MCF7 breast, 0.401 µM; in the experiment with NCI-H23 lung it was 0.503 µM; in the experiment with OVCAR-8 ovarian, 0.411 µM. Besides, the GI50 with SK-MEL-2 melanoma is > 100 µM; with SNB-75 CNS it was 0.665 µM; in the experiment with T-47D breast, 0.332 µM; in the experiment with UACC-62 melanoma it was 0.327 µM. For the same compound, the TGI in the experiment on HOP-62 NSCLC, in the experiment with IGROV1 ovarian, in the experiment on MCF7 breast, in the experiment with NCI-H23 lung, in the experiment with OVCAR-8 ovarian and in the experiment on SK-MEL-2 melanoma was > 100 µM throughout. Moreover, the values for the TGI in the experiment with SNB-75 CNS, with T-47D breast and in the experiment on UACC-62 melanoma were > 93.4 µM, > 100 µM and 2.28 µM, respectively.
`COc1cc2oc(=O)ccc2cc1C1OC(=O)C2OC21C` (stereo not drawn): the TGI with ACHN renal, with HOP-62 NSCLC, in the experiment with IGROV1 ovarian, in the experiment with MCF7 breast, in the experiment on NCI-H23 lung and with OVCAR-8 ovarian was > 100 µM in each case. Further, the TGI with SK-MEL-2 melanoma, in the experiment with SNB-75 CNS, in the experiment with T-47D breast and in the experiment on UACC-62 melanoma was > 100 µM each time.
